Experimental findings from patent US6869958B2, “Fused tetrahydropyridine derivatives as matrix metalloproteinase inhibitors” (Warner-Lambert Company, priority 2002, dated 2005) are described below.

Structures are written as SMILES. pIC50: −log10 of the molar value.

This test concerns the target T1, hMMP-13CD (Homo sapiens, UniProt P45452).
T1 construct: a human MMP-13 catalytic domain (“hMMP-13CD”)
The test can be described thus: Inhibition of MMP-13 catalytic domain (IC50). In kind it is biochemical. The settings on record: human MMP-13 catalytic domain. How it is done: Thiopeptolide substrates show virtually no decomposition or hydrolysis at or below neutral pH in the absence of a matrix metalloproteinase enzyme. A typical thiopeptolide substrate commonly utilized for assays is Ac-Pro-Leu-Gly-thioester-Leu-Leu-Gly-OEt. A 100 μL assay mixture will contain 50 mM of N-2-hydroxyethylpiperazine-N′-2-ethanesulfonic acid buffer (“HEPES,” pH 7.0), 10 mM CaCl2, 100 μM thiopeptolide substrate, and 1 mM 5,5′-dithio-bis-(2-nitro-benzoic acid) (DTNB). The thiopeptolide substrate concentration may be varied, for example from 10 to 800 μM to obtain Km and Kcat values. The change in absorbance at 405 nm is monitored on a Thermo Max microplate reader (molecular Devices, Menlo Park, Calif.) at room temperature (22° C.). […]
Some representative compounds of Formula I have been evaluated for their ability to inhibit MMP-13. Inhibitor activity versus other MMPs with the compounds may be determined using, for example, MMP-1FL, which refers to full length interstitial collagenase; MMP-2FL, which refers to full length Gelatinase A; MMP-3CD, which refers to the catalytic domain of stromelysin; MMP-7FL, which refers to full length matrilysin; MMP-9FL, which refers to full length Gelatinase B; MMP-13CD, which refers to the catalytic domain of collagenase 3; and MMP-14CD, which refers to the catalytic domain of MMP-14. […]

The term pIC50 denotes the IC50 on a negative log10 scale, so that one unit is a factor of ten. As to `O=C(O)c1ccc(Cn2ccc3ccc(C#CCn4ccnn4)cc3c2=O)cc1` [4-[1-oxo-7-(3-[1,2,3]triazol-1-ylprop-1-ynyl)-1H-isoquinolin-2-ylmethyl]benzoic acid], the negative-log IC50 (pIC50) was less than 4.30.
